Results as given in US8470837B2, “MAPK/ERK kinase inhibitors” (Takeda Pharmaceutical Company Limted, priority 2006, dated 2013).

Each molecule was assayed against MEK1 (Homo sapiens, UniProt Q02750, DEL30-49/S218E/S222D) (assay: MEK1 inhibition, fluorescence polarization assay with IMAP beads (ERK1 / FI-Erktide coupled)).
MEK1, sequence (Q02750 with tags, fused parts or gaps DEL30-49/S218E/S222D): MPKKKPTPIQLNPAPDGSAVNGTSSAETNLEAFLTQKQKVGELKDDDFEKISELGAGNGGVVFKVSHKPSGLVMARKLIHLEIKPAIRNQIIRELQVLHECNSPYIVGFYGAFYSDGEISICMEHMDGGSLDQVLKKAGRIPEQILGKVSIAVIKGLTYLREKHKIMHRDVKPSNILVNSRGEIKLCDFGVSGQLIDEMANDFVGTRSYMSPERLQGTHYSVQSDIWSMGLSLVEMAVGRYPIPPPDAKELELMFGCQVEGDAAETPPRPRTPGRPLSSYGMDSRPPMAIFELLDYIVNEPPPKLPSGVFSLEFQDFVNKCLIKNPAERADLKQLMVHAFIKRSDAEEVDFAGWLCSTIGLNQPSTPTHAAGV

For `Cc1c(Nc2ccc(Br)cc2F)c2c(=O)n(C[C@H](O)CO)cnc2n(C)c1=O` [Example 9, (S)-5-(4-Bromo-2-fluorophenylamino)-3-(2,3-dihydroxypropyl)-6,8-dimethylpyrido[2,3-d]pyrimidine-4,7(3H,8H)-dione], which IC50 is on record?
The IC50 was ≥ 16 nM.

For `Cc1c(Nc2ccc(I)cc2F)c2c(=O)n(C(CO)CO)cnc2n(C)c1=O` [Example 43, 3-(1,3-Dihydroxypropan-2-yl)-5-(2-fluoro-4-iodophenylamino)-6,8-dimethylpyrido[2,3-d]pyrimidine-4,7(3H,8H)-dione], which IC50 is on record?
The IC50 was 5 to 15 nM.

Which IC50 does the source give for `Cn1c(=O)c(Cl)c(Nc2ccc(Br)cc2Cl)c2c(=O)n(CCCO)cnc21` [Example 36, 5-(4-Bromo-2-chlorophenylamino)-6-chloro-3-(3-hydroxypropyl)-8-methylpyrido[2,3-d]pyrimidine-4,7(3H,8H)-dione] here?
The IC50 was ≥ 16 nM.

How did the IC50 turn out when `Cc1c(Nc2ccccc2F)c2c(=O)n(CCO)cnc2n(C)c1=O` [Example 15, 5-(2-Fluorophenylamino)-3-(2-hydroxyethyl)-6,8-dimethylpyrido[2,3-d]pyrimidine-4,7(3H,8H)-dione] was run?
Its IC50 is ≥ 16 nM.

`CC(O)Cn1cnc2c(c(Nc3ccc(I)cc3F)c(Cl)c(=O)n2C)c1=O` (centres unmarked) [Example 40, 6-Chloro-5-(2-fluoro-4-iodophenylamino)-3-(2-hydroxypropyl)-8-methylpyrido[2,3-d]pyrimidine-4,7(3H,8H)-dione] was tested. Which IC50 did it give?
Its IC50 is 5 to 15 nM.

With `Cc1c(Nc2ccc(I)cc2F)c2c(=O)n(CCO)cnc2n(C)c1=O` [Example 14, 5-(2-Fluoro-4-iodophenylamino)-3-(2-hydroxyethyl)-6,8-dimethylpyrido[2,3-d]pyrimidine-4,7(3H,8H)-dione] as the molecule, how does the IC50 read?
Its IC50 is ≤ 5 nM.

How did the IC50 turn out when `Cn1c(=O)cc(Nc2ccc(I)cc2F)c2c(=O)n(Cc3ccccc3)cnc21` [Example 42, 3-Benzyl-5-(2-fluoro-4-iodophenylamino)-8-methylpyrido[2,3-d]pyrimidine-4,7(3H,8H)-dione] was run?
The IC50 was ≥ 16 nM.

For `Cn1c(=O)c(Cl)c(Nc2ccc(I)cc2F)c2c(=O)n(CCO)cnc21` [Example 30, 6-Chloro-5-(2-fluoro-4-iodophenylamino)-3-(2-hydroxyethyl)-8-methylpyrido[2,3-d]pyrimidine-4,7(3H,8H)-dione], which IC50 is on record?
Its IC50 is ≤ 5 nM.

How did the IC50 turn out when `Cn1c(=O)c(Cl)c(Nc2ccc(Br)cc2F)c2c(=O)n(C[C@@H](O)CO)cnc21` [Example 29, (R)-5-(4-Bromo-2-fluorophenylamino)-6-chloro-3-(2,3-dihydroxypropyl)-8-methylpyrido[2,3-d]pyrimidine-4,7(3H,8H)-dione] was run?
Its IC50 is 5 to 15 nM.

For `Cn1c(=O)c(F)c(Nc2ccc(NS(C)(=O)=O)cc2F)c2c(=O)n(C[C@@H](O)CO)cnc21` [Example 23, (R)—N-(4-(3-(2,3-Dihydroxypropyl)-6-fluoro-8-methyl-4,7-dioxo-3,4,7,8-tetrahydropyrido[2,3-d]pyrimidin-5-ylamino)-3-fluorophenyl)methanesulfonamide], which IC50 is on record?
Its IC50 is ≥ 16 nM.

With `Cc1c(Nc2ccc(Br)cc2F)c2c(=O)n(CCO)cnc2n(C)c1=O` [Example 11, 5-(4-Bromo-2-fluorophenylamino)-3-(2-hydroxyethyl)-6,8-dimethylpyrido[2,3-d]pyrimidine-4,7(3H,8H)-dione] as the molecule, how does the IC50 read?
Its IC50 is ≥ 16 nM.

`C#Cc1ccc(Nc2c(F)c(=O)n(C)c3ncn(C[C@H](O)CO)c(=O)c23)c(F)c1` [Example 21, (S)-3-(2,3-Dihydroxypropyl)-5-(4-ethynyl-2-fluorophenylamino)-6-fluoro-8-methylpyrido[2,3-d]pyrimidine-4,7(3H,8H)-dione] was tested. Which IC50 did it give?
Its IC50 is 5 to 15 nM.

With `Cn1c(=O)cc(Nc2ccc(Br)cc2Cl)c2c(=O)n(CCCO)cnc21` [Example 35, 5-(4-Bromo-2-chlorophenylamino)-3-(3-hydroxypropyl)-8-methylpyrido[2,3-d]pyrimidine-4,7(3H,8H)-dione] as the molecule, how does the IC50 read?
The IC50 was ≥ 16 nM.

Which IC50 does the source give for `COC(=O)Cn1cnc2c(c(Nc3ccc(I)cc3F)cc(=O)n2C)c1=O` [Example 3, Methyl 2-(5-(2-fluoro-4-iodophenylamino)-8-methyl-4,7-dioxo-7,8-dihydropyrido[2,3-d]pyrimidin-3(4H)-yl)acetate] here?
The IC50 was ≥ 16 nM.

How did the IC50 turn out when `C#Cc1ccc(Nc2c(C)c(=O)n(C)c3ncn(C[C@@H](O)CO)c(=O)c23)c(F)c1` [Example 16, (R)-3-(2,3-Dihydroxypropyl)-5-(4-ethynyl-2-fluorophenylamino)-6,8-dimethylpyrido[2,3-d]pyrimidine-4,7(3H,8H)-dione] was run?
The IC50 was 5 to 15 nM.

For `Cn1c(=O)c(Cl)c(Nc2ccc(Br)cc2F)c2c(=O)n(CCCO)cnc21` [Example 34, 5-(4-Bromo-2-fluorophenylamino)-6-chloro-3-(3-hydroxypropyl)-8-methylpyrido[2,3-d]pyrimidine-4,7(3H,8H)-dione], which IC50 is on record?
The IC50 was 5 to 15 nM.

For `C#Cc1ccc(Nc2c(C)c(=O)n(C)c3ncn(C[C@H](O)CO)c(=O)c23)c(F)c1` [Example 44, (S)-3-(2,3-Dihydroxypropyl)-5-(4-ethynyl-2-fluorophenylamino)-6,8-dimethylpyrido[2,3-d]pyrimidine-4,7(3H,8H)-dione], which IC50 is on record?
The IC50 was 5 to 15 nM.

For `Cn1c(=O)cc(Nc2ccc(I)cc2F)c2c(=O)n(CCCO)cnc21` [Example 31, 5-(2-Fluoro-4-iodophenylamino)-3-(3-hydroxypropyl)-8-methylpyrido[2,3-d]pyrimidine-4,7(3H,8H)-dione], which IC50 is on record?
The IC50 was ≤ 5 nM.

For `Cn1c(=O)cc(Nc2ccc(Br)cc2F)c2c(=O)n(CCCO)cnc21` [Example 33, 5-(4-Bromo-2-fluorophenylamino)-3-(3-hydroxypropyl)-8-methylpyrido[2,3-d]pyrimidine-4,7(3H,8H)-dione], which IC50 is on record?
Its IC50 is ≥ 16 nM.

How did the IC50 turn out when `C#Cc1ccc(Nc2c(F)c(=O)n(C)c3ncn(C[C@@H](O)CO)c(=O)c23)c(F)c1` [Example 22, (R)-3-(2,3-dihydroxypropyl)-5-(4-ethynyl-2-fluorophenylamino)-6-fluoro-8-methylpyrido[2,3-d]pyrimidine-4,7(3H,8H)-dione] was run?
The IC50 was ≤ 5 nM.

For `Cn1c(=O)c(F)c(Nc2ccc(I)cc2F)c2c(=O)n(C(CO)CO)cnc21` [Example 25, 3-(1,3-Dihydroxypropan-2-yl)-6-fluoro-5-(2-fluoro-4-iodophenylamino)-8-methylpyrido[2,3-d]pyrimidine-4,7(3H,8H)-dione], which IC50 is on record?
Its IC50 is ≤ 5 nM.

How did the IC50 turn out when `Cn1c(=O)c(Cl)c(Nc2ccc(I)cc2F)c2c(=O)n(C[C@H](O)CO)cnc21` [Example 7, (S)-6-Chloro-3-(2,3-dihydroxypropyl)-5-(2-fluoro-4-iodophenylamino)-8-methylpyrido[2,3-d]pyrimidine-4,7(3H,8H)-dione] was run?
The IC50 was ≤ 5 nM.

With `Cc1c(Nc2ccc(Br)cc2F)c2c(=O)n(C[C@@H](O)CO)cnc2n(C)c1=O` [Example 10, (R)-5-(4-Bromo-2-fluorophenylamino)-3-(2,3-dihydroxypropyl)-6,8-dimethylpyrido[2,3-d]pyrimidine-4,7(3H,8H)-dione] as the molecule, how does the IC50 read?
The IC50 was ≥ 16 nM.

Which IC50 does the source give for `CC(O)Cn1cnc2c(c(Nc3ccc(I)cc3F)cc(=O)n2C)c1=O` (centres unmarked) [Example 38, 5-(2-Fluoro-4-iodophenylamino)-3-(2-hydroxypropyl)-8-methylpyrido[2,3-d]pyrimidine-4,7(3H,8H)-dione] here?
The IC50 was ≥ 16 nM.

How did the IC50 turn out when `Cn1c(=O)c(F)c(Nc2ccc(I)cc2F)c2c(=O)n(OC[C@H](O)CO)cnc21` [Example 28, (R)-3-(2,3-Dihydroxypropoxy)-6-fluoro-5-(2-fluoro-4-iodophenylamino)-8-methylpyrido[2,3-d]pyrimidine-4,7(3H,8H)-dione] was run?
Its IC50 is ≤ 5 nM.

For `CN(C)CCn1cnc2c(c(Nc3ccc(I)cc3F)cc(=O)n2C)c1=O` [Example 37, 3-(2-(Dimethylamino)ethyl)-5-(2-fluoro-4-iodophenylamino)-8-methylpyrido[2,3-d]pyrimidine-4,7(3H,8H)-dione], which IC50 is on record?
The IC50 was ≥ 16 nM.

How did the IC50 turn out when `Cn1c(=O)c(F)c(Nc2ccc(I)cc2F)c2c(=O)n(C[C@H](O)CO)cnc21` [Example 19, (S)-3-(2,3-Dihydroxypropyl)-6-fluoro-5-(2-fluoro-4-iodophenylamino)-8-methylpyrido[2,3-d]pyrimidine-4,7(3H,8H)-dione] was run?
Its IC50 is ≤ 5 nM.

How did the IC50 turn out when `Cn1c(=O)c(F)c(Nc2ccc(I)cc2F)c2c(=O)n(C[C@@H](O)CO)cnc21` [Example 18, (R)-3-(2,3-Dihydroxypropyl)-6-fluoro-5-(2-fluoro-4-iodophenylamino)-8-methylpyrido[2,3-d]pyrimidine-4,7(3H,8H)-dione] was run?
The IC50 was ≤ 5 nM.

For `Cn1c(=O)c(Cl)c(Nc2ccc(I)cc2F)c2c(=O)n(CCCO)cnc21` [Example 32, 6-Chloro-5-(2-fluoro-4-iodophenylamino)-3-(3-hydroxypropyl)-8-methylpyrido[2,3-d]pyrimidine-4,7(3H,8H)-dione], which IC50 is on record?
Its IC50 is ≤ 5 nM.
